Data published in patent US20260285850A1, “SUBSTITUTED OXAZOLIDINONES AND IMIDAZOLINONES AS HERBICIDES” (FMC CORPORATION, priority 2023, published 2026).

Tests used:
Assay type in all cases: in vivo
[1] = tested on: galium (catchweed bedstraw, Galium aparine); test: Test A postemergence application, visual injury rating 0-100
Summary of the method: (§1)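 Preemergence directed soil spray or postemergence spray (2-10 cm, 1-2 leaf); loam/sand mix; compound in non-phytotoxic solvent + surfactant. Greenhouse, 10 d. Visual injury vs untreated, 0 = none, 100 = complete control.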

[2] = tested on: green foxtail (Setaria viridis); test: as above
Summary of the method: as §1

[3] = tested on: oat, wild (wild oat, Avena fatua); test: as above
Summary of the method: as §1

[4] = tested on: horseweed (Erigeron canadensis); test: as above
Summary of the method: as §1

[5] = tested on: wheat (Triticum aestivum); test: as above
Summary of the method: as §1

corn (Zea mays) [6] = test: as above
Summary of the method: as §1

[7] = tested on: ragweed (common ragweed, Ambrosia artemisiifolia); test: as above
Summary of the method: as §1

soybean (Glycine max) [8] = test: as above
Summary of the method: as §1

[9] = tested on: palmer (palmer amaranth, palmer pigweed, Amaranthus palmeri); test: as above
Summary of the method: as §1

[10] = tested on: ryegrass, Italian (italian ryegrass, Lolium multiflorum); test: as above
Summary of the method: as §1

kochia (Bassia scoparia) [11] = test: as above
Summary of the method: as §1

[12] = tested on: barnyardgrass (Echinochloa crus-galli); test: as above
Summary of the method: as §1

[13] = tested on: blackgrass (Alopecurus myosuroides); test: as above
Summary of the method: as §1

[14] = tested on: green foxtail (Setaria viridis); test: Test A preemergence soil spray, visual injury rating 0-100; conditions: 10 days
Summary of the method: as §1

[15] = tested on: oat, wild (wild oat, Avena fatua); test: as above; conditions: 10 days
Summary of the method: as §1

[16] = tested on: wheat (Triticum aestivum); test: as above; conditions: 10 days
Summary of the method: as §1

corn (Zea mays) [17] = test: as above; conditions: 10 days
Summary of the method: as §1

[18] = tested on: ragweed (common ragweed, Ambrosia artemisiifolia); test: as above; conditions: 10 days
Summary of the method: as §1

soybean (Glycine max) [19] = test: as above; conditions: 10 days
Summary of the method: as §1

[20] = tested on: palmer (palmer amaranth, palmer pigweed, Amaranthus palmeri); test: as above; conditions: 10 days
Summary of the method: as §1

[21] = tested on: ryegrass, Italian (italian ryegrass, Lolium multiflorum); test: as above; conditions: 10 days
Summary of the method: as §1

kochia (Bassia scoparia) [22] = test: as above; conditions: 10 days
Summary of the method: as §1

[23] = tested on: barnyardgrass (Echinochloa crus-galli); test: as above; conditions: 10 days
Summary of the method: as §1

[24] = tested on: blackgrass (Alopecurus myosuroides); test: as above; conditions: 10 days
Summary of the method: as §1

[25] = tested on: barnyardgrass (Echinochloa crusgalli); test: Test B flooded paddy test, visual plant response rating 0-100; conditions: 250 g ai/ha, Flood, applied to paddy water, evaluated after 13 days
Summary of the method: (§2)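 Paddy-water application: test compounds went directly into water flooded 3 cm above the soil surface, with plants at 2 leaves. After a 13-day greenhouse period, responses were judged by eye relative to controls; a dash marks an untested entry.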

[26] = tested on: ducksalad (Heteranthera limosa); test: as above; conditions: 250 g ai/ha, Flood, applied to paddy water, evaluated after 13 days
Summary of the method: as §2

[27] = tested on: sedge, umbrella (small-flower umbrella sedge, Cyperus difformis); test: as above; conditions: 250 g ai/ha, Flood, applied to paddy water, evaluated after 13 days
Summary of the method: as §2

rice (Oryza sativa) = test: as above; conditions: 250 g ai/ha, Flood, applied to paddy water, evaluated after 13 days
Summary of the method: as §2

[28] = 62 g ai/ha, postemergence, 10 days, 0 = no effect, 100 = complete control
[29] = Postemergence, 16 g ai/ha, greenhouse 10 days, 0 no effect, 100 complete control
[30] = 62 g ai/ha, 0 = no effect, 100 = complete control

Structure (SMILES): COC(=O)C1CC(NC(=O)C2(C)CN(c3cc(F)cc(F)c3)C(=O)O2)C1 (stereo not shown) [Compound 118, methyl 3-[[3-(3,5-difluorophenyl)-5-methyl-2-oxo-oxazolidine-5-carbonyl]amino]cyclobutanecarboxylate]
- Galium plant response rating (0-100) [1, 28]: 60
- Galium plant response rating (0 to 100 scale) [1, 29]: 50
- Foxtail, Green plant response rating (0-100) [2, 28]: 90
- Foxtail, Green plant response rating (0 to 100 scale) [2, 29]: 90
- Oat, Wild plant response rating (0-100) [3, 28]: 90
- Oat, Wild plant response rating (0 to 100 scale) [3, 29]: 30
- Horseweed plant response rating (0-100) [4, 28]: 0
- Horseweed plant response rating (0 to 100 scale) [4, 29]: 0
- Wheat plant response rating (0-100) [5, 28]: 90
- Wheat plant response rating (0 to 100 scale) [5, 29]: 80
- Corn plant response rating (0-100) (corn (Zea mays) [6]; [28]): 100
- Corn plant response rating (0 to 100 scale) (corn (Zea mays) [6]; [29]): 90
- Ragweed plant response rating (0-100) [7, 28]: 50
- Ragweed plant response rating (0 to 100 scale) [7, 29]: 30
- Soybean plant response rating (0-100) (soybean (Glycine max) [8]; [28]): 60
- Soybean plant response rating (0 to 100 scale) (soybean (Glycine max) [8]; [29]): 60
- Pigweed, Palmer plant response rating (0-100) [9, 28]: 70
- Pigweed, Palmer plant response rating (0 to 100 scale) [9, 29]: 20
- Ryegrass, Italian plant response rating (0-100) [10, 28]: 80
- Ryegrass, Italian plant response rating (0 to 100 scale) [10, 29]: 20
- Kochia plant response rating (0-100) (kochia (Bassia scoparia) [11]; [28]): 70
- Kochia plant response rating (0 to 100 scale) (kochia (Bassia scoparia) [11]; [29]): 30
- Barnyardgrass plant response rating (0-100) [12, 28]: 100
- Barnyardgrass plant response rating (0 to 100 scale) [12, 29]: 50
- Blackgrass plant response rating (0-100) [13, 28]: 100
- Blackgrass plant response rating (0 to 100 scale) [13, 29]: 90
- Foxtail, Green plant response rating ([14]; 16 g ai/ha, 0 to 100 scale): 60
- Foxtail, Green plant response rating (0-100) [14, 30]: 90
- Oat, Wild plant response rating ([15]; 16 g ai/ha, 0 to 100 scale): 90
- Oat, Wild plant response rating (0-100) [15, 30]: 90
- Wheat plant response rating ([16]; 16 g ai/ha, 0 to 100 scale): 20
- Wheat plant response rating (0-100) [16, 30]: 80
- Corn plant response rating (corn (Zea mays) [17]; 16 g ai/ha, 0 to 100 scale): 30
- Corn plant response rating (0-100) (corn (Zea mays) [17]; [30]): 90
- Ragweed plant response rating ([18]; 16 g ai/ha, 0 to 100 scale): 0
- Ragweed plant response rating (0-100) [18, 30]: 0
- Soybean plant response rating (soybean (Glycine max) [19]; 16 g ai/ha, 0 to 100 scale): 0
- Soybean plant response rating (0-100) (soybean (Glycine max) [19]; [30]): 30
- Pigweed, Palmer plant response rating ([20]; 16 g ai/ha, 0 to 100 scale): 20
- Pigweed, Palmer plant response rating (0-100) [20, 30]: 50
- Ryegrass, Italian plant response rating ([21]; 16 g ai/ha, 0 to 100 scale): 20
- Ryegrass, Italian plant response rating (0-100) [21, 30]: 80
- Kochia plant response rating (kochia (Bassia scoparia) [22]; 16 g ai/ha, 0 to 100 scale): 0
- Kochia plant response rating (0-100) (kochia (Bassia scoparia) [22]; [30]): 60
- Barnyardgrass plant response rating ([23]; 16 g ai/ha, 0 to 100 scale): 10
- Barnyardgrass plant response rating (0-100) [23, 30]: 80
- Blackgrass plant response rating ([24]; 16 g ai/ha, 0 to 100 scale): 30
- Blackgrass plant response rating (0-100) [24, 30]: 90
- Plant response rating, Barnyardgrass (0 to 100 scale, 0 is no effect and 100 is complete control) [25]: 0
- Plant response rating, Ducksalad (0 to 100 scale, 0 is no effect and 100 is complete control) [26]: 0
- Plant response rating, Sedge, Umbrella (0 to 100 scale, 0 is no effect and 100 is complete control) [27]: 0
- Plant response rating, Rice (0 to 100 scale, 0 is no effect and 100 is complete control) (rice (Oryza sativa)): 0
